The results in this text go back to PubChem BioAssay (NCI).

Each structure is given as a SMILES string.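 Five concentrations, 48 hours, 96-well plates. At the TGI there is no net growth.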

Test systems include UO-31 renal; EKVX NSCLC; SK-MEL-2 melanoma; NCI-H226 lung; SF-268 CNS; RXF 393 renal; HL-60(TB) leukemia; KM12 colon; NCI-H460 lung; DU-145 prostate; MDA-N; RPMI-8226 leukemia.
Holding throughout (test): growth of human tumour cells (NCI), 48 h

In the case of `COCOc1cc(OC)ccc1C=O`, the TGI is greater than 100 µM in the assay on UO-31 renal; greater than 100 µM in the assay on EKVX NSCLC; greater than 100 µM with SK-MEL-2 melanoma; greater than 100 µM with NCI-H226 lung; greater than 100 µM in the assay with SF-268 CNS; 39.1 µM in the assay with RXF 393 renal. For the same compound, the TGI is greater than 100 µM in the assay with HL-60(TB) leukemia; greater than 100 µM with KM12 colon; greater than 100 µM in the assay on NCI-H460 lung; greater than 100 µM with DU-145 prostate; 23.7 µM with MDA-N.

Regarding `COc1cc(O)c(C(=O)/C=C/c2ccc(O)cc2)cc1Oc1ccc(C(=O)/C=C/c2ccc(O)cc2)c(O)c1`, the TGI with UO-31 renal is 7.06 µM; in the assay on EKVX NSCLC it was 5.68 µM; in the assay with SK-MEL-2 melanoma, 14.7 µM; with SF-268 CNS it was 14.2 µM; with RXF 393 renal, 6.1 µM; in the assay with HL-60(TB) leukemia, greater than 100 µM. The TGI is 3.18 µM in the assay with KM12 colon; 6.49 µM in the assay with RPMI-8226 leukemia; 12.1 µM with NCI-H460 lung; 5.78 µM in the assay on DU-145 prostate; 12.1 µM in the assay on MDA-N.

Turning to `Cc1cc(SCC(=O)c2ccc(Br)cc2)cc(C)[o+]1`, the TGI is 83.9 µM in the assay on UO-31 renal; 39.9 µM in the assay with EKVX NSCLC; 76 µM in the assay with SK-MEL-2 melanoma; 95.5 µM in the assay with NCI-H226 lung; greater than 100 µM in the assay with SF-268 CNS; 62 µM in the assay with RXF 393 renal. In addition, the TGI is 33.8 µM in the assay with HL-60(TB) leukemia; 62.6 µM with KM12 colon; 52.3 µM in the assay with RPMI-8226 leukemia; 76.2 µM with NCI-H460 lung; 68.9 µM with DU-145 prostate; greater than 100 µM with MDA-N.

As to `COc1ccccc1NC(=S)N/N=C(/c1ccccc1)c1ccccn1`, the TGI amounted to 14.1 µM with UO-31 renal; 5.46 µM with EKVX NSCLC; 21.7 µM in the assay on SK-MEL-2 melanoma; 8.64 µM with NCI-H226 lung; 20.4 µM with SF-268 CNS; 13.9 µM in the assay with RXF 393 renal. The TGI in the assay on HL-60(TB) leukemia is 2.18 µM; in the assay on KM12 colon, 14 µM; with RPMI-8226 leukemia, 6.14 µM; with NCI-H460 lung, 13.3 µM; with DU-145 prostate, 4.95 µM; with MDA-N it was 21.5 µM.

In the case of `COC(=O)CCCc1ccc2c(c1)CCC2`, the TGI in the assay with UO-31 renal, in the assay with SK-MEL-2 melanoma, in the assay on NCI-H226 lung, in the assay with SF-268 CNS, in the assay with HL-60(TB) leukemia and in the assay on KM12 colon was greater than 100 µM in each case. Further, the TGI in the assay with RPMI-8226 leukemia, in the assay with NCI-H460 lung, with DU-145 prostate and in the assay with MDA-N was greater than 100 µM throughout.

Take `COc1ccc2c(c1)CCC(CN1CCN(CCOC(c3ccc(F)cc3)c3ccc(F)cc3)CC1)=C2`: the TGI in the assay on EKVX NSCLC was 29.6 µM; with SK-MEL-2 melanoma, 33.3 µM; in the assay with NCI-H226 lung, 30.6 µM; in the assay on SF-268 CNS it was greater than 100 µM; in the assay on RXF 393 renal, 26.8 µM; with HL-60(TB) leukemia, 30.3 µM. Moreover, the TGI is greater than 100 µM with KM12 colon; 36.9 µM with RPMI-8226 leukemia; 34.2 µM with NCI-H460 lung; 49.2 µM with DU-145 prostate; 47.2 µM with MDA-N.

In the case of `O=c1[nH]c2ccc(CC(=S)N3CCN(c4ccccc4)CC3)cc2s1`, the TGI in the assay on EKVX NSCLC was greater than 100 µM; in the assay on SK-MEL-2 melanoma it was greater than 100 µM; with NCI-H226 lung, 69.6 µM; in the assay on SF-268 CNS it was greater than 100 µM; in the assay with RXF 393 renal it was 46.4 µM; with HL-60(TB) leukemia, greater than 100 µM. Further, the TGI in the assay with KM12 colon was greater than 100 µM; with RPMI-8226 leukemia, 49.8 µM; with NCI-H460 lung, 56.1 µM; in the assay on DU-145 prostate it was greater than 100 µM; with MDA-N, greater than 100 µM.

With `CCCCc1ccc(N2C(=O)c3cc(C)cnc3S2(=O)=O)cc1`, the TGI in the assay on UO-31 renal, in the assay with EKVX NSCLC, in the assay on SK-MEL-2 melanoma, in the assay with NCI-H226 lung, in the assay on SF-268 CNS and in the assay on RXF 393 renal was greater than 100 µM each time. Moreover, the TGI with HL-60(TB) leukemia, with KM12 colon, in the assay on RPMI-8226 leukemia, in the assay with NCI-H460 lung, in the assay on DU-145 prostate and with MDA-N was greater than 100 µM in each case.

On to `COc1ccc(N(C(=O)OC(C)(C)C)[C@@H]2C(C)=C[C@H]([S@@](=O)c3ccc(C)cc3)[C@@H]3C(=O)N(C)C(=O)[C@@H]32)cc1`, for which the TGI in the assay with UO-31 renal came out at 30.1 µM; with EKVX NSCLC it was 9.85 µM; with SK-MEL-2 melanoma, 39.3 µM; in the assay with NCI-H226 lung it was 34.6 µM; in the assay on SF-268 CNS, 33.9 µM; with RXF 393 renal it was 30.4 µM. The TGI in the assay on HL-60(TB) leukemia is 47.5 µM; in the assay on KM12 colon, 30.5 µM; in the assay on RPMI-8226 leukemia, 44.3 µM; with NCI-H460 lung, greater than 100 µM; with DU-145 prostate, 81.8 µM; in the assay with MDA-N, 40.8 µM.

As for `CC1(C)OC1CC/C(=C/CBr)CBr` (centres undefined), the TGI with UO-31 renal came out at 28.9 µM; in the assay with EKVX NSCLC, 33.3 µM; with SK-MEL-2 melanoma, 29 µM; with NCI-H226 lung, 48.4 µM; in the assay with SF-268 CNS, 29 µM; with RXF 393 renal it was 31.2 µM. In addition, the TGI in the assay on HL-60(TB) leukemia was found to be 23.9 µM; with KM12 colon it was 29.9 µM; in the assay with RPMI-8226 leukemia, 40.7 µM; in the assay on NCI-H460 lung, 29 µM; in the assay with DU-145 prostate, 55.6 µM; in the assay with MDA-N, 29.3 µM.

Regarding `COc1cccc(-n2nnc3c(N)nc(N)nc32)c1`, the TGI with EKVX NSCLC, in the assay with SK-MEL-2 melanoma, in the assay with NCI-H226 lung, in the assay on SF-268 CNS, in the assay on HL-60(TB) leukemia and in the assay on KM12 colon was greater than 100 µM throughout. The TGI in the assay on RPMI-8226 leukemia, with NCI-H460 lung, with DU-145 prostate and in the assay on MDA-N was greater than 100 µM in each case.
